# Data from US20090298915A1, “TOPICAL DRUG DELIVERY” (priority 2006, published 2009).
# Columns and labels:
# [1] = system: S91 Cloudman murine melanoma cells; assay: Pigmentation assay (melanin synthesis); type: cell-based; conditions: 5 days culture, 10^−8 M and 10^−6 M
# Description: (§1) S91 Cloudman murine melanoma cells were cultured for 5 days in the presence or absence of αMSH compounds. All experiments were carried out in triplicate wells on three separate occasions. Following culture, cells were washed twice with PBS and then dissociated with cell dissociation solution (Sigma, UK). An aliquot of cells were counted using a haemocytometer, and the remaining cells pelleted by centrifugation prior to lysis of the pellet with 200 μl of 1M NaOH. Melanin concentrations were determined against a standard synthetic melanin dose range using a spectrophometric plate reader (emission 450-492 nm).
# [2] = Ex vivo skin penetration, Franz diffusion chamber, mouse skin; type: in vitro ADME; conditions: fluorescein-labelled compounds, 10^−3 M, up to 3 hours
# Source text: (§2) The penetration of the relevant compounds into mouse, pig and human skin was investigated using a Franz diffusion chamber system; this approach ensured a sealed system which prevented any leakage between the upper donor compartment and the lower receptor compartment. Circular full thickness skin samples (6 mm diameter) which had been cut with a punch biopsy blade were mounted into the diffusion chamber, with the stratum corneum facing upwards so that it was exposed to donor compartment, and with the receptor compartment filled with PBS. The compound under investigation was applied to the donor compartment so that it lay on the outer skin surface, and the chamber incubated at room temperature or at 37° C. for up to 3 hours. At the end of this incubation period, the remaining solution was removed from the upper compartment, and the skin washed three times with PBS. The skin was then bisected and half of it was snap frozen in liquid nitrogen for cryosectioning whereas the other half was fixed in 4% paraformaldehyde for 3 hours prior to paraffin blocking for cutting tissue sections. The skin sections were mounted on glass and visualised under fluorescent microscopy.
# (§3) Penetration of αMSH into skin was examined using an ex-vivo mouse, pig and human skin model. […]
# [3] = Ex vivo skin penetration, Franz diffusion chamber, pig skin; type: in vitro ADME; conditions: fluorescein-labelled compounds, 10^−3 M, up to 3 hours
# Source text: as §2, §3
# [4] = Ex vivo skin penetration, Franz diffusion chamber, human skin; type: in vitro ADME; conditions: fluorescein-labelled compounds, 10^−3 M, up to 3 hours
# Source text: as §2, §3
# B16F10 cells = assay: Transport into B16F10 cells, fluorescence and confocal microscopy; type: cell-based, murine; conditions: TyrPNA-PPL-fluo at 3×10^−5 M and at 10^−4 M
# Description: Experiments to investigate the transport of each compound into cells in culture were performed at 3 hours and 24 hours. Cells were seeded (at 1×10^5 cells per well for 3 hours treatment or 5×10^4 cells per well for 24 hours treatment) on 1% (w/v) poly-L-lysine coated glass coverslips in 12 well plates and incubated overnight at 5% CO2 and 37° C.; poly-L-lysine coating of glass coverslips was employed to prevent the fluo-labelled PPL compounds adhering to the glass and causing background fluorescence. Cells were then washed with PBS, and incubated at 5% CO2 and 37° C. with the compound in the medium for 3 hours or 24 hours. The medium was subsequently removed and the cells washed twice with PBS, prior to fixation with 4% paraformaldehyde for 7 minutes, and then fixation was stopped with 50 mM ammonium chloride for 10 minutes. Cells were subsequently washed twice with PBS, and coverslips were mounted (with the cells facing downwards) onto a glass slide with vectashield, and the edges sealed with clear nail varnish to prevent drying. Fluorescence was detected by fluorescence microscopy and/or confocal microscopy. […]
# Fluorescently-tagged compounds were used as noted above and intracellular fluorescence recorded as a measure of penetration.
# [5] = system: B16F10 murine melanoma cells; assay: Pigmentation assay in alphaMSH-stimulated B16F10 cells; type: cell-based; conditions: B16F10, 48 hours, αMSH 10^−10 M, compound 10^−5 M
# Description: as §1
# B16F10 murine melanoma cells were cultured for 48 hours in the presence or absence of αMSH (10^−10 M) with or without TyrPNA or TyrASO and separately with or without TyrPNA-PPL or TyrASO-PPL. Pigmentation was assessed as described above.
penetration into pig skin ex vivo [3],Substance,"melanin synthesis by melanoma cells, potency compared with αMSH [1]",penetration into mouse skin ex vivo [2],penetration into human skin ex vivo [4],penetration into B16F10 cells (intracellular fluorescence) (B16F10 cells),darkening of the cell pellet induced by αMSH [5]
did not penetrate into skin,Fluo-Ahx-SYSMEHFRWGKPV-NH2 [Fluo-MSH],stimulated melanin synthesis by melanoma cells with similar potency to αMSH,did not penetrate into skin (except on a single occasion in mouse skin),did not penetrate into skin,–,–
–,"TyrPNA-fluo: fluorescein-labelled TyrPNA, FIG. 8 (GAACATTTTCTCCTT; all peptide nucleic acid (PNA); further chemistry not fully specified)",–,–,did not penetrate into skin,did not penetrate into B16F10 cells,–
–,"TyrPNA: 15 mer antisense peptide nucleic acid (GAA CAT TTT CTC CTT; SEQ. ID no. 1) targeting murine tyrosinase, modified as in FIG. 7 (antisense GAACATTTTCTCCTT; all peptide nucleic acid (PNA); further chemistry not fully specified) [15 mer antisense peptide nucleic acid (GAA CAT TTT CTC CTT; ID no]",–,–,–,–,did not prevent the increased production of melanin
